Source: ChEMBL document CHEMBL4831488, “Design, synthesis, docking, molecular dynamics and bioevaluation studies on novel N-methylpicolinamide and thienopyrimidine derivatives with inhibiting NF-κB and TAK1 activities: Cheminformatics tools RDKit applied in drug design” (Eur J Med Chem, 2021)
Active and inactive are the calls of the source. The calls are words filed in the database; no cut-off is given here.

How the values were obtained:
HCT-116 [1] = experiment: Cytotoxicity against human HCT-116 cells assessed as inhibition of cell growth measured after 72 hrs by MTT assay; assay type: functional, cell-based; settings: HCT-116, 72 h
MDA-MB-231 = experiment: Cytotoxicity against human MDA-MB-231 cells assessed as inhibition of cell growth at 20 uM measured after 72 hrs by MTT assay relative to control; assay type: functional
HCT-116 [2] = experiment: Cytotoxicity against human HCT-116 cells assessed as inhibition of cell growth at 20 uM measured after 72 hrs by MTT assay relative to control; assay type: functional
A549 [3] = experiment: Cytotoxicity against human A549 cells assessed as inhibition of cell growth measured after 72 hrs by MTT assay; assay type: functional, cell-based; settings: Homo sapiens, A549, 72 h; read-out: IC50
TAK1-TAB1 fusion protein = TAK1-TAB1 fusion protein (Homo sapiens, UniProt O43318); experiment: Inhibition of Tak1/Tab1 (unknown origin) assessed as inhibition of Tak1 kinase activity preincubated for 30 mins followed by addition of MBP protein and ATP and measured after 2 hrs by ADP-Glo kinase assay
TAK1-TAB1 fusion protein, sequence (O43318 whole entry, looked up, the tested form may be a part): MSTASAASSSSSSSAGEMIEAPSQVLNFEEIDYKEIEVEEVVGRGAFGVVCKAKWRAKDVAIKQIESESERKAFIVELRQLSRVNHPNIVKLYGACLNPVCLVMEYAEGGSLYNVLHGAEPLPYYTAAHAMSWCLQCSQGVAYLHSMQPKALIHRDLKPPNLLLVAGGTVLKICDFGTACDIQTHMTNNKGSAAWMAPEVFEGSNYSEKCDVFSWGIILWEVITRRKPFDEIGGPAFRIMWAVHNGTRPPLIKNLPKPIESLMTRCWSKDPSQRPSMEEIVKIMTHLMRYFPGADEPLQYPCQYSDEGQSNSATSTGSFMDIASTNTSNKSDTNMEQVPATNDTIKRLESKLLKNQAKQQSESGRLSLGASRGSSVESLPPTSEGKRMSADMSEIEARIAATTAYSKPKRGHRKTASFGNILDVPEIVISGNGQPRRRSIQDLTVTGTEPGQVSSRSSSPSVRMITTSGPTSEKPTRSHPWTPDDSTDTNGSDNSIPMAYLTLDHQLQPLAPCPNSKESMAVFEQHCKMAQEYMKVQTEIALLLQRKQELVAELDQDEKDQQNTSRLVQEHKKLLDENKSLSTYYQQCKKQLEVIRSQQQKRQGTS

A549 [4] = experiment: Cell cycle arrest in human A549 cells assessed as accumulation at G0/G1 phase at 0.6 uM measured after 24 hrs by PI staining based Flow cytometry method (reference value: 55.54%); assay type: functional
A549 [5] = experiment: Cell cycle arrest in human A549 cells assessed as accumulation at G2/M phase at 0.6 uM measured after 24 hrs by PI staining based Flow cytometry method (reference value: 10.2%); assay type: functional
A549 [6] = experiment: Cell cycle arrest in human A549 cells assessed as accumulation at G2/M phase at 1.2 uM measured after 24 hrs by PI staining based Flow cytometry method (reference value: 10.2%); assay type: functional
A549 [7] = experiment: Cell cycle arrest in human A549 cells assessed as accumulation at S phase at 1.2 uM measured after 24 hrs by PI staining based Flow cytometry method (reference value: 34.24%); assay type: functional
A549 [8] = experiment: Cell cycle arrest in human A549 cells assessed as accumulation at G0/G1 phase at 1.8 uM measured after 24 hrs by PI staining based Flow cytometry method (reference value: 55.54%); assay type: functional
HCT-116 [9] = experiment: Cell cycle arrest in human HCT-116 cells assessed as accumulation at G2/M phase at 1.8 uM measured after 24 hrs by PI staining based Flow cytometry method; assay type: functional
A549 [10] = experiment: Induction of apoptosis in human A549 cells assessed as viable cells at 0.6 uM measured by annexinV-FITC/propidium iodide staining based flow cytometry analysis (reference value: 97.8%); assay type: functional; settings: read-out: Activity
A549 [11] = experiment: Induction of apoptosis in human A549 cells assessed as early apoptotic cells at 0.6 uM measured by annexinV-FITC/propidium iodide staining based flow cytometry analysis (reference value: 1.17%); assay type: functional
A549 [12] = experiment: Induction of apoptosis in human A549 cells assessed as necrotic cells at 0.6 uM measured by annexinV-FITC/propidium iodide staining based flow cytometry analysis (reference value: 0.42%); assay type: functional
A549 [13] = experiment: Induction of apoptosis in human A549 cells assessed as viable cells at 1.2 uM measured by annexinV-FITC/propidium iodide staining based flow cytometry analysis (reference value: 97.8%); assay type: functional; settings: read-out: Activity
A549 [14] = experiment: Induction of apoptosis in human A549 cells assessed as early apoptotic cells at 1.2 uM measured by annexinV-FITC/propidium iodide staining based flow cytometry analysis (reference value: 1.17%); assay type: functional
A549 [15] = experiment: Induction of apoptosis in human A549 cells assessed as late apoptotic cells at 1.2 uM measured by annexinV-FITC/propidium iodide staining based flow cytometry analysis (reference value: 0.64%); assay type: functional
A549 [16] = experiment: Induction of apoptosis in human A549 cells assessed as necrotic cells at 1.2 uM measured by annexinV-FITC/propidium iodide staining based flow cytometry analysis (reference value: 0.42%); assay type: functional
A549 [17] = experiment: Induction of apoptosis in human A549 cells assessed as viable cells at 1.8 uM measured by annexinV-FITC/propidium iodide staining based flow cytometry analysis (reference value: 97.8%); assay type: functional; settings: read-out: Activity
A549 [18] = experiment: Induction of apoptosis in human A549 cells assessed as early apoptotic cells at 1.8 uM measured by annexinV-FITC/propidium iodide staining based flow cytometry analysis (reference value: 1.17%); assay type: functional
A549 [19] = experiment: Induction of apoptosis in human A549 cells assessed as late apoptotic cells at 1.8 uM measured by annexinV-FITC/propidium iodide staining based flow cytometry analysis (reference value: 0.64%); assay type: functional
HCT-116 [20] = experiment: Induction of apoptosis in human HCT-116 cells assessed as early apoptotic cells at 1.8 uM measured by annexinV-FITC/propidium iodide staining based flow cytometry analysis; assay type: functional
[21] = molecular target: T1, Nuclear factor NF-kappa-B complex (Homo sapiens) (UniProt Q00653+P19838+Q04206); experiment: Inhibition of human NF-kB in human HCT-116 cells assessed as suppression of TNF-alpha induced p-65 expression at 0.5 to 5 uM pretreated with compounds for 24 hrs followed by TNF-alpha stimulation for 10 mins by Western blot analysis; assay type: cell-based; settings: dose 0.5-5 µM, time 1450.0 min
T1 sequence (P19838 whole entry, looked up): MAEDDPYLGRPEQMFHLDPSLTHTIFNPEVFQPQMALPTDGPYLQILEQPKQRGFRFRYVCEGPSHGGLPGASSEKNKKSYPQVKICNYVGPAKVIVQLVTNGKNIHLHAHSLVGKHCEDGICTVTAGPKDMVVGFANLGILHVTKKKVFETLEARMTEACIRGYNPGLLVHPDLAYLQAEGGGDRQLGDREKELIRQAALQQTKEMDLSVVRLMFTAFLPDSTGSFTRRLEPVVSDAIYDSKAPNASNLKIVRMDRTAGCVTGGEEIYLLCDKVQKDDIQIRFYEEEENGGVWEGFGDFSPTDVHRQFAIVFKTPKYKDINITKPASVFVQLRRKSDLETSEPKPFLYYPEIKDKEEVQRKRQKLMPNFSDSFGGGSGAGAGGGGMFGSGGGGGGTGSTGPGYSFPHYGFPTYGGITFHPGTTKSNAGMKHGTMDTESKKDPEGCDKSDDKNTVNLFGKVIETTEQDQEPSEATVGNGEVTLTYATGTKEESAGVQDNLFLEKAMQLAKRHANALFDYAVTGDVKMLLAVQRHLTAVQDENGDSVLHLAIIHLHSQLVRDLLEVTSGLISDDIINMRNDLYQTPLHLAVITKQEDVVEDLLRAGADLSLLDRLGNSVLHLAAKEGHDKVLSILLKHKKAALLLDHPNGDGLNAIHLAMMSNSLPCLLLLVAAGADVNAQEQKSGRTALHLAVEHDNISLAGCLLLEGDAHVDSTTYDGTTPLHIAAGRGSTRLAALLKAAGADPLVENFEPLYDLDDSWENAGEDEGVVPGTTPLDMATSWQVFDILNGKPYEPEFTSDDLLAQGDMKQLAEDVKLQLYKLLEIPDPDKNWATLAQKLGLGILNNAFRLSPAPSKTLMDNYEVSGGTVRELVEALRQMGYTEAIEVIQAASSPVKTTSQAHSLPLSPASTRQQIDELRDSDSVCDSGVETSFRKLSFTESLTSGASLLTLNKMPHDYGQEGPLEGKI
T1 sequence (Q00653 whole entry, looked up): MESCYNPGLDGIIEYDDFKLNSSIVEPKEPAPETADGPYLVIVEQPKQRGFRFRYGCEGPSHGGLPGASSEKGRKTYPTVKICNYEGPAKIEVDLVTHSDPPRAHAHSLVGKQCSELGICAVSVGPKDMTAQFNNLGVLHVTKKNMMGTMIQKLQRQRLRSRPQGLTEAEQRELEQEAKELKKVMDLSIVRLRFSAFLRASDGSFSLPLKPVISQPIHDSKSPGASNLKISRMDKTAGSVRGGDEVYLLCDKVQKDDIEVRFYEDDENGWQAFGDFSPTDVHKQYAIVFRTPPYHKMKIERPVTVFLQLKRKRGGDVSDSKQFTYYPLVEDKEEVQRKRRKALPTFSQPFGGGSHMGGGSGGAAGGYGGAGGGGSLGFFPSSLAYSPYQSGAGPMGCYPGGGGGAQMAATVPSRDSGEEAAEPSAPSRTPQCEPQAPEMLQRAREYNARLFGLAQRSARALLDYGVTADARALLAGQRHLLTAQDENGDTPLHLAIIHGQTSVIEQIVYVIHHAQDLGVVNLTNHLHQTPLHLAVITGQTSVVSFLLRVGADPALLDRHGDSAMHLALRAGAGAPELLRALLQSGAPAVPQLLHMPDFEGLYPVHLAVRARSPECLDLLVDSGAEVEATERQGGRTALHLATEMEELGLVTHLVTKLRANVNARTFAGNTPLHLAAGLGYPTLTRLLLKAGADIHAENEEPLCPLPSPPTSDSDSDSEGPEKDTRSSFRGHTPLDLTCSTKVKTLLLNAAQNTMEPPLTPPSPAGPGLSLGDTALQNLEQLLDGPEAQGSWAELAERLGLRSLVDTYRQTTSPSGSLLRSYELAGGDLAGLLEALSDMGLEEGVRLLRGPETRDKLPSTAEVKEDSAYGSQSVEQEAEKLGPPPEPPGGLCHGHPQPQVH
T1 sequence (Q04206 whole entry, looked up): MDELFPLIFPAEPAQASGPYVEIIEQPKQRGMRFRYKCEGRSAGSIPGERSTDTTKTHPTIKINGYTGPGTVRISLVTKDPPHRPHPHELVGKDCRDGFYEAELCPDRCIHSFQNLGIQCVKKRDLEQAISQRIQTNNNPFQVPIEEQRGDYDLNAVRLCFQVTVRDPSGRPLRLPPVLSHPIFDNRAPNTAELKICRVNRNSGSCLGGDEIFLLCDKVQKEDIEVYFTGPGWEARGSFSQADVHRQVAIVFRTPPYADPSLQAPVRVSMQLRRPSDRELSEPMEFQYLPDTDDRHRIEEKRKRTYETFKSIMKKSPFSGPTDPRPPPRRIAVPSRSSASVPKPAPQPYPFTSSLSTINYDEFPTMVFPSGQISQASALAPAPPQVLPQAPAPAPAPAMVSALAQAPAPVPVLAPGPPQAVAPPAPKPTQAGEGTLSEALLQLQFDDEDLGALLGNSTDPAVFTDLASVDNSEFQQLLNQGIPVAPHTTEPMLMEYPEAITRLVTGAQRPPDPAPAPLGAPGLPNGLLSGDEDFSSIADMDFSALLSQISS

[22] = molecular target: T1, Nuclear factor NF-kappa-B complex (Homo sapiens); experiment: Inhibition of human NF-kB in human HCT-116 cells assessed as suppression of TNF-alpha induced p-65 phosphorylation at 0.5 to 5 uM pretreated with compounds for 24 hrs followed by TNF-alpha stimulation for 10 mins by Western blot analysis; assay type: cell-based; settings: dose 0.5-5 µM, time 1450.0 min
[23] = molecular target: T1, Nuclear factor NF-kappa-B complex (Homo sapiens); experiment: Inhibition of human NF-kB in human HCT-116 cells assessed as suppression of TNF-alpha induced IkBalpha expression at 0.5 to 5 uM pretreated with compounds for 24 hrs followed by TNF-alpha stimulation for 10 mins by Western blot analysis; assay type: cell-based; settings: dose 0.5-5 µM, time 1450.0 min
[24] = molecular target: T1, Nuclear factor NF-kappa-B complex (Homo sapiens); experiment: Inhibition of human NF-kB in human HCT-116 cells assessed as suppression of TNF-alpha induced TAK1 expression at 0.5 to 5 uM pretreated with compounds for 24 hrs followed by TNF-alpha stimulation for 10 mins by Western blot analysis; assay type: cell-based; settings: dose 0.5-5 µM, time 1450.0 min
[25] = molecular target: T1, Nuclear factor NF-kappa-B complex (Homo sapiens); experiment: Inhibition of human NF-kB in human A549 cells assessed as suppression of TNF-alpha induced p-65 expression at 0.5 to 5 uM pretreated with compounds for 24 hrs followed by TNF-alpha stimulation for 10 mins by Western blot analysis; assay type: cell-based; settings: dose 0.5-5 µM, time 1450.0 min
[26] = molecular target: T1, Nuclear factor NF-kappa-B complex (Homo sapiens); experiment: Inhibition of human NF-kB in human A549 cells assessed as suppression of TNF-alpha induced p-65 phosphorylation at 0.5 to 5 uM pretreated with compounds for 24 hrs followed by TNF-alpha stimulation for 10 mins by Western blot analysis; assay type: cell-based; settings: dose 0.5-5 µM, time 1450.0 min
[27] = molecular target: T1, Nuclear factor NF-kappa-B complex (Homo sapiens); experiment: Inhibition of human NF-kB in human A549 cells assessed as suppression of TNF-alpha induced IkBalpha expression at 0.5 to 5 uM pretreated with compounds for 24 hrs followed by TNF-alpha stimulation for 10 mins by Western blot analysis; assay type: cell-based; settings: dose 0.5-5 µM, time 1450.0 min
MAP3K7 [28] = experiment: Inhibition of human TAK1 in human A549 cells assessed as suppression of TNF-alpha induced TAK1 expression at 0.5 to 5 uM pretreated with compounds for 24 hrs followed by TNF-alpha stimulation for 10 mins by Western blot analysis; settings: dose 0.5-5 µM, time 1450.0 min
MAP3K7 [29] = experiment: Inhibition of human TAK1 in human A549 cells assessed as suppression of TNF-alpha induced TAK1 phosphorylation at 0.5 to 5 uM pretreated with compounds for 24 hrs followed by TNF-alpha stimulation for 10 mins by Western blot analysis; settings: dose 0.5-5 µM, time 1450.0 min

## CNC(=O)c1cc(Oc2ccc(Nc3nccc(N4CCCCC4)n3)cc2)ccn1
HCT-116 [1]
  IC50: 540 nM
MDA-MB-231
  inhibition at 20 µM: 52.3%
HCT-116 [2]
  inhibition at 20 µM: 69.8%
A549 [3]
  IC50: 890 nM
TAK1-TAB1 fusion protein
  IC50: 580 nM
A549 [4]
  Activity: 60.53%
A549 [5]
  Activity: 15.91%
A549 [6]
  Activity: 23.68%
A549 [7]
  Activity: 18.83%
A549 [8]
  Activity: 52.78%
HCT-116 [9]
  Activity: 36.72%
A549 [10]
  viability at 0.6 µM: 87.6%
A549 [11]
  Activity: 8.16%
A549 [12]
  Activity: 0.75%
A549 [13]
  viability at 1.2 µM: 80.6%
A549 [14]
  Activity: 12.9%
A549 [15]
  Activity: 5.7%
A549 [16]
  Activity: 0.74%
A549 [17]
  viability at 1.8 µM: 64.4%
A549 [18]
  Activity: 25.4%
A549 [19]
  Activity: 9.54%
HCT-116 [20]
  Activity: 71.4%
[21]
  inhibition: Active
[22]
  inhibition: Active
[23]
  inhibition: Active
[24]
  inhibition: Active
[25]
  inhibition: Active
[26]
  inhibition: Active
[27]
  inhibition: Active
MAP3K7 [28]
  inhibition: Active
MAP3K7 [29]
  inhibition: Active
